# Measured values reported in patent US6710048B2, “Pyrazine derivatives as modulators of tyrosine kinases” (Ortho-McNeil Pharmaceutical, Inc., priority 2000, dated 2004).
# Tests used:
# Type in all cases: biochemical
# Casein Kinase 1 = molecular target: T1, Casein Kinase 1 (Rattus norvegicus, UniProt Q06486); test: Casein Kinase 1 selectivity assay; conditions: Table 4 kinase selectivity; read-out: IC50, Assay 8 Casein Kinase 1
# T1 construct: a truncation at amino acid 318 of the C-terminal portion of the rat CK1 delta isoform produced in E.coli; purchased New England Biolabs 6030; host or cells: E. coli
# T1 sequence (Q06486 1-317 limits assumed): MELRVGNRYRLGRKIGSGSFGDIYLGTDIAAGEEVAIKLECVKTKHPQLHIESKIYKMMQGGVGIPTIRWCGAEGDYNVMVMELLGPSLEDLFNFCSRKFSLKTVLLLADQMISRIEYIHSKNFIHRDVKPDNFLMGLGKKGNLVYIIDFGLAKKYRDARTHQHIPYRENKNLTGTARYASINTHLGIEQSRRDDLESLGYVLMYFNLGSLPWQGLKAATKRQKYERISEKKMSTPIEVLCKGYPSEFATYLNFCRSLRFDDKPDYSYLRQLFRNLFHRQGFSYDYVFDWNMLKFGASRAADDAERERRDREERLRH
# Protocol: (§1) Assays to test compound inhibition of other kinases were preformed using methods that measure the amount of phosphorylation of a biotinylated peptide substrate. Biotinylated peptide substrates were selected from the literature as appropriate for the enzyme being evaluated. […] Assay conditions vary slightly for each protein kinase, for example, insulin receptor kinase requires 10 mM MnCl2 for activity and Calmodulin-dependent protein kinase requires calmodulin and 2 mM CaCl2. The reaction mixture was dispensed into the wells of a streptavidin coated Flashplate and 1 μl drug stock in 100% DMSO was added to a 100 μl reaction volume resulting in a final concentration of 1% DMSO in the reaction. Enzyme was diluted in 50 mM Tris-HCl pH=8.0, 0.1% BSA and added to each well. The reaction was incubated for one hour at 30° C. in the presence of compound. After one hour the reaction mix was aspirated from the plate and the plate was washed with PBS containing 100 mM EDTA. The plate was read on a scintillation counter to determine ^33P-γ-ATP incorporated into the immobilized peptide. Test compounds were assayed in duplicate at 8 concentrations [100 tM, 10 μM, 1 μM, 100 nM, 10 nM, 1 nM, 100 μM, 10 μM]. A maximum and minimum signal for the assay was determined on each plate. The IC50 was calculated from the dose response curve of the percent inhibition of the maximum signal in the assay according to the formula [max signal−background/test compound signal−background (100)=% inhibition] by graphing the percent inhibition against the log concentration of test compound. Known inhibitor compounds appropriate for the kinase being assayed were also included on each plate.
# VEGF-R (vascular endothelial growth factor receptor-2) is a fusion protein containing a polyhistidine tag at the N-terminus followed by amino acids 786-1343 of the rat VEGF-R2 kinase domain (GenBank Accession #U93306). CDK1 (cyclin dependent kinase 1) is isolated from insect cells expressing both the human CDK1 catalytic subunit and its positive regulatory subunit cyclin B (New England Biolabs, Beverly, Mass., Cat. #6020). CDK4 (cyclin dependent kinase 4) contains amino acids 769 to 921 of the mouse […] protein found in the GST-retinoblastoma protein construct (Santa Cruz Biotechnology, Santa Cruz, Calif.; Cat. #SC-4112). Insulin Receptor Kinase consists of residues 941-1313 of the cytoplasmic domain of the beta-subunit of the human insulin receptor (BIOMOL, Plymouth Meeting, Pa., Cat. #SE-195). Protein Kinase A is the catalytic subunit of cAMP dependent protein kinase-A purified from bovine heart (Upstate Biotech, Lake Placid, N.Y., Cat#14-114). PKC (protein kinase-C) is the gamma or beta isoform of the human protein produced in insect cells (BIOMOL, Plymouth Meeting, Pa., Cat. #SE-143). Casein Kinase 1 is a truncation at amino acid 318 of the C-terminal portion of the rat CK1 delta isoform produced in E.coli (New England Biolabs, Beverly, Mass., Cat. #6030). Casein Kinase 2 includes the alpha and beta subunits of the human CK2 protein produced in E.coli (New England Biolabs, Beverly, Mass., Cat. #6010). Calmodulin Kinase (calmodulin-dependent protein kinase 2) is a truncated version of the alpha subunit of the rat protein produced in insect cells (New England Biolabs, Beverly, Mass., Cat. #6060). Glycogen Synthase Kinase-3 is the beta isoform of the rabbit enzyme produced in E. coli (New England Biolabs, Beverly, Mass., Cat. #6040). MAP Kinase is the rat ERK-2 isoform containing a polyhistidine tag at the N-terminus produced in E. coli. and activated by phosphorylation with MEK1 prior to purification (BIOMOL, Plymouth Meeting, Pa., Cat. #SE-137). EGFR (epidermal growth factor receptor) is purified from human A431 cell membranes (Sigma, St. Louis, Mo., Cat.# E3641). PDGF-R (platelet derived growth factor receptor) is a fusion protein containing a polyhistidine tag at the N-terminus followed by nucleotides 1874-3507 of the human PDGF-R beta subunit kinase domain (Accession #M21616). […]
# [1] = molecular target: CDK4 (cyclin dependent kinase 4) (Homo sapiens, UniProt P11802); test: CDK4 kinase selectivity assay; conditions: Table 4 kinase selectivity; 10 = approximate value; read-out: IC50, Assay 3 CDK4
# Chain of CDK4 (cyclin dependent kinase 4) (P11802 whole entry, species assumed): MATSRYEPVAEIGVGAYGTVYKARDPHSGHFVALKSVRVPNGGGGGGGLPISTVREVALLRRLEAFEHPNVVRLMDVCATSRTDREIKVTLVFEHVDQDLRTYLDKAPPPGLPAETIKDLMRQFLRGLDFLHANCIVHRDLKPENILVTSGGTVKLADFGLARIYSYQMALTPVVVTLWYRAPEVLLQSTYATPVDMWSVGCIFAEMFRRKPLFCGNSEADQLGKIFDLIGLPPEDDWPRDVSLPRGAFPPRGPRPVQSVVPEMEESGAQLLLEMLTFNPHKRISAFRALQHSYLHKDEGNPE
# Chain of CDK4 (cyclin dependent kinase 4) (P24385 whole entry partner, species assumed): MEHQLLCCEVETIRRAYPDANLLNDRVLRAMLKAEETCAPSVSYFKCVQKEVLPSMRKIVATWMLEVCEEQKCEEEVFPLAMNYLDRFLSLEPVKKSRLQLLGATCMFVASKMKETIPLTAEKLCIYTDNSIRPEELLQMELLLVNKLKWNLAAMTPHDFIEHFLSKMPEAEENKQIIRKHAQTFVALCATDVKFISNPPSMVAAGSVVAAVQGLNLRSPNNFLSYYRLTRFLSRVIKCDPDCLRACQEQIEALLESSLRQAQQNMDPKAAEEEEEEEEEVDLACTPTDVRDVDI
# Protocol: as §1
# VEGF-R (vascular endothelial growth factor receptor-2) is a fusion protein containing a polyhistidine tag at the N-terminus followed by amino acids 786-1343 of the rat VEGF-R2 kinase domain (GenBank Accession #U93306). CDK1 (cyclin dependent kinase 1) is isolated from insect cells expressing both the human CDK1 catalytic subunit and its positive regulatory subunit cyclin B (New England Biolabs, Beverly, Mass., Cat. #6020). CDK4 (cyclin dependent kinase 4) contains amino acids 769 to 921 of the mouse […] protein found in the GST-retinoblastoma protein construct (Santa Cruz Biotechnology, Santa Cruz, Calif.; Cat. #SC-4112). Insulin Receptor Kinase consists of residues 941-1313 of the cytoplasmic domain of the beta-subunit of the human insulin receptor (BIOMOL, Plymouth Meeting, Pa., Cat. #SE-195). Protein Kinase A is the catalytic subunit of cAMP dependent protein kinase-A purified from bovine heart (Upstate Biotech, Lake Placid, N.Y., Cat#14-114). PKC (protein kinase-C) is the gamma or beta isoform of the human protein produced in insect cells (BIOMOL, Plymouth Meeting, Pa., Cat. #SE-143). […]
# HER2 = HER2 (Homo sapiens, UniProt P04626); test: HER2 kinase selectivity assay; conditions: Table 4 kinase selectivity; read-out: IC50, Assay 16 HER2
# Chain of HER2 (P04626 23-1255, species assumed): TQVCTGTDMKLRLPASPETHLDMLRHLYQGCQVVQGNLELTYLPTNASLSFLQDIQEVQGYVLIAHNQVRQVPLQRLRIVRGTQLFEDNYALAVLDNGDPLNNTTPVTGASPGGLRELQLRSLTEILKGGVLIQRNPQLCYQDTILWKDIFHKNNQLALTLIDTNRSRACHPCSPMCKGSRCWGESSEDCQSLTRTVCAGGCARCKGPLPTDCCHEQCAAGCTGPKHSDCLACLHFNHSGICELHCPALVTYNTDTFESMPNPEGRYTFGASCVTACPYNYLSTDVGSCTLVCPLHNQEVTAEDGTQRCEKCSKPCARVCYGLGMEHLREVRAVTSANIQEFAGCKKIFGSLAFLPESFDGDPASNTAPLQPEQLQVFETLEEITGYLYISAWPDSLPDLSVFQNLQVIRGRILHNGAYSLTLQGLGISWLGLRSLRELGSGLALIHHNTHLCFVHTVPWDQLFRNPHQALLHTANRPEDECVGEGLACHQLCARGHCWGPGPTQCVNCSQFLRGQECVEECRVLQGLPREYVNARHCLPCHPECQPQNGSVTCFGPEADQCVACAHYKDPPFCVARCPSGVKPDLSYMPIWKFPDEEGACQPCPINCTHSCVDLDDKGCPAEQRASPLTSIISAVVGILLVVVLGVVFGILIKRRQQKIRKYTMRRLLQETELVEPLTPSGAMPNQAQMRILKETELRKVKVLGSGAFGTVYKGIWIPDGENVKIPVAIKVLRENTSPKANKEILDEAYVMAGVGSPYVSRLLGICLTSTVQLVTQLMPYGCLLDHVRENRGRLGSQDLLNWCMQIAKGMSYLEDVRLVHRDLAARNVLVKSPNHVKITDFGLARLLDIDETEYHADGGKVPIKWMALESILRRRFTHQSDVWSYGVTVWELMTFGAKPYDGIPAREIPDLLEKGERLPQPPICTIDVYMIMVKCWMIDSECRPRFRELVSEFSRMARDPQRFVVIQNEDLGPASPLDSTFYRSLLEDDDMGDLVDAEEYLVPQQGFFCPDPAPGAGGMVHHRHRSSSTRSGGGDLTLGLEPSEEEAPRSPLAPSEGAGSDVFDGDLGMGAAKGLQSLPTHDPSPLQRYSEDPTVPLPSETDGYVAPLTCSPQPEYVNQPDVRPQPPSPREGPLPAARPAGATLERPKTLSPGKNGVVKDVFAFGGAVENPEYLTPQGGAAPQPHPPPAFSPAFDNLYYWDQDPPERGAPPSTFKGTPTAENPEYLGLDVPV
# Protocol: Assays to test compound inhibition of other kinases were preformed using methods that measure the amount of phosphorylation of a biotinylated peptide substrate. Biotinylated peptide substrates were selected from the literature as appropriate for the enzyme being evaluated. The general procedure used to assay for kinase activity is as follows: A kinase reaction mix was prepared in 50 mM Tris-HCl pH=8, 10 mM MgCl2, 0.1 mM NaVO4, 1 mM DTT, 5-10 μM ATP, 0.25-1 μM biotinylated peptide substrate, 0.2-0.8 μCuries per well ^33P-γ-ATP [2000-3000 Ci/mmol]. Assay conditions vary slightly for each protein kinase, for example, insulin receptor kinase requires 10 mM MnCl2 for activity and Calmodulin-dependent protein kinase requires calmodulin and 2 mM CaCl2. The reaction mixture was dispensed into the wells of a streptavidin coated Flashplate and 1 μl drug stock in 100% DMSO was added to a 100 μl reaction volume resulting in a final concentration of 1% DMSO in the reaction. Enzyme was diluted in 50 mM Tris-HCl pH=8.0, 0.1% BSA and added to each well. The reaction was incubated for one hour at 30° C. in the presence of compound. After one hour the reaction mix was aspirated from the plate and the plate was washed with PBS containing 100 mM EDTA. The plate was read on a scintillation counter to determine ^33P-γ-ATP incorporated into the immobilized peptide. Test compounds were assayed in duplicate at 8 concentrations [100 tM, 10 μM, 1 μM, 100 nM, 10 nM, 1 nM, 100 μM, 10 μM]. A maximum and minimum signal for the assay was determined on each plate. The IC50 was calculated from the dose response curve of the percent inhibition of the maximum signal in the assay according to the formula [max signal−background/test compound signal−background (100)=% inhibition] by graphing the percent inhibition against the log concentration of test compound. Known inhibitor compounds appropriate for the kinase being assayed were also included on each plate.
Structure (SMILES),IC50 (Casein Kinase 1) [µM],IC50 [1] [µM],IC50 (HER2) [µM]
OCCCCNc1cncc(-c2cncc(Nc3cccc(Cl)c3)n2)c1 [Cmd 32],,> 10,
CN(C)CCCNc1cncc(-c2cncc(Nc3cccc(Cl)c3)n2)c1 [Cmd 35],> 100,~10,
O=C(NCCCO)c1cncc(-c2cncc(Nc3cccc(Cl)c3)n2)c1 [Cmd 39],> 100,,
Clc1cccc(Nc2cncc(-c3cncc(NCCCc4ccncc4)c3)n2)c1 [Cmd 71],> 100,,> 100
Clc1cccc(Nc2cncc(-c3cncc(NCCCc4cccnc4)c3)n2)c1 [Cmd 72],> 100,,9.7

# Other lines, results leading:
IC50 (Casein Kinase 1) [µM],IC50 [1] [µM],IC50 (HER2) [µM],Structure (SMILES)
> 100,~10,,OCCCNc1cncc(-c2cncc(Nc3cccc(Cl)c3)n2)c1 [Cmd 4]
> 100,~10,,"CN(C)CCNc1cncc(-c2cncc(Nc3cccc(Cl)c3)n2)c1 [Cmd 33, N′-[5-[6-[(3-chlorophenyl)amino]pyrazinyl]-3-pyridinyl]-N^2,N^2-dimethyl-1,2-ethanediamine]"
5.03,,7.2,Clc1cccc(Nc2cncc(-c3cncc(NCCCN4CCCCC4)c3)n2)c1 [Cmd 73]
5.6,,3,Clc1cccc(Nc2cncc(-c3cncc(NCCCn4cccn4)c3)n2)c1 [Cmd 75]
6.5,,2.24,Clc1cccc(Nc2cncc(-c3cncc(NCCCn4cncn4)c3)n2)c1 [Cmd 76]
